ChEMBL document CHEMBL1201861, “Genomics of Drug Sensitity in Cancer screening data, Wellcome Trust Sanger Institute”
pIC50: −log10 of the molar value.

Legend:
Test in all cases: cells
D-263MG = type: functional, cell-based, Homo sapiens; settings: Homo sapiens, D-263MG
DSH1 = type: functional, cell-based; settings: Homo sapiens;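 also: growth inhibition of human DSH1 cells, measured with a cell viability readout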
ES5 = type: functional, cell-based, Homo sapiens; settings: Homo sapiens, ES5;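 also: growth inhibition of human ES5 cells, read out by a cell viability assay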
ES6 = type: functional, cell-based; settings: Homo sapiens;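 also: growth inhibition of human ES6 cells, read out with a cell viability assay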
ES7 = type: functional, cell-based, Homo sapiens; settings: Homo sapiens, ES7;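 also: growth inhibition of cultured human ES7 cells, read out as cell viability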
ES8 = type: functional, cell-based, Homo sapiens; settings: Homo sapiens, ES8;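 also: growth inhibition of human ES8 cells, read out with a cell viability assay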
EW-13 = type: functional, cell-based, Homo sapiens; settings: Homo sapiens, EW-13; read-out: IC50;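 also: growth inhibition of EW-13 cells, read out with a cell viability assay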
GB-1 = type: functional, cell-based, Homo sapiens; settings: Homo sapiens, GB-1;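 also: growth of GB-1 cells judged by a viability assay, IC50 marks the concentration inhibiting growth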
HCC2157 = type: functional, cell-based, Homo sapiens; settings: Homo sapiens, HCC2157;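 also: growth inhibition of the cancer cell line, read out as cell viability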
HH = type: functional, cell-based, Homo sapiens; settings: Homo sapiens, HH
HL-60 = type: functional, cell-based, Homo sapiens; settings: Homo sapiens, HL-60;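 also: growth inhibition of human HL-60 cells, read out with a cell viability assay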
JVM-2 = type: functional, cell-based, Homo sapiens; settings: Homo sapiens, JVM-2;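 also: growth inhibition of JVM-2 cells determined by a cell viability assay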
JVM-3 = type: functional, cell-based, Homo sapiens; settings: Homo sapiens, JVM-3;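 also: growth inhibition of human JVM-3 cells, read out with a cell viability assay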
KARPAS-299 = type: functional, cell-based, Homo sapiens; settings: Homo sapiens, KARPAS-299
KE-37 = type: functional, cell-based, Homo sapiens; settings: Homo sapiens, KE-37;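 also: growth inhibition of KE-37 cells, read out with a cell viability assay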
KG-1 = type: functional, cell-based, Homo sapiens; settings: Homo sapiens, KG-1;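 also: growth inhibition of KG-1 cells, read out by a cell viability assay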
KGN = type: functional, cell-based, Homo sapiens; settings: Homo sapiens, KGN;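 also: growth inhibition of KGN cells, read out with a cell viability assay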
KINGS-1 = type: functional, cell-based, Homo sapiens; settings: Homo sapiens, KINGS-1;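 also: cell viability assay measuring suppression of KINGS-1 cell growth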
KLE = type: functional, cell-based; settings: Homo sapiens;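 also: growth inhibition of human KLE cells, read out with a cell viability assay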
KU812 cell line = type: functional, cell-based, Homo sapiens; settings: Homo sapiens, KU812;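 also: growth inhibition of KU812 cells, read out with a cell viability assay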
LB996-RCC = type: functional, cell-based, Homo sapiens; settings: Homo sapiens, LB996-RCC
LOX IMVI = type: functional, cell-based, Homo sapiens; settings: Homo sapiens, LOX IMVI
LS-513 = type: functional, cell-based, Homo sapiens; settings: Homo sapiens, LS-513
LU-134-A = type: functional, cell-based, Homo sapiens; settings: Homo sapiens, LU-134-A
MEG-01 = type: functional, cell-based, Homo sapiens; settings: Homo sapiens, MEG-01;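 also: growth inhibition of MEG-01 cells, read out by a cell viability assay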
MHH-NB-11 = type: functional, cell-based, Homo sapiens; settings: Homo sapiens, MHH-NB-11;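 also: growth inhibition of human MHH-NB-11 cells, read out by a cell viability assay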
ML-2 = type: functional, cell-based, Homo sapiens; settings: Homo sapiens, ML-2;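 also: growth inhibition of ML-2 cells, measured with a cell viability readout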
MZ7-mel = type: functional, cell-based, Homo sapiens; settings: Homo sapiens, MZ7-mel;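 also: growth inhibition of human MZ7-mel cells, measured by a cell viability assay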
Mo = type: functional, cell-based, Homo sapiens; settings: Homo sapiens, Mo
NCI-H1650 = type: functional, cell-based, Homo sapiens; settings: Homo sapiens, NCI-H1650;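 also: growth inhibition of human NCI-H1650 cells measured by a cell viability assay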
NCI-H226 = type: functional, cell-based, Homo sapiens; settings: Homo sapiens, NCI-H226;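 also: cell viability read-out used to gauge growth inhibition of the cells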
NCI-H747 = type: functional, cell-based, Homo sapiens; settings: Homo sapiens, NCI-H747;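 also: growth inhibition of human NCI-H747 cells, read out by a cell viability assay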
SNU1 = type: functional, cell-based, Homo sapiens; settings: Homo sapiens, SNU1;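 also: growth inhibition of human NCI-SNU-1 cells, measured with a cell viability assay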
NH-12 = type: functional, cell-based, Homo sapiens; settings: Homo sapiens, NH-12;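 also: growth inhibition of NH-12 cells, read out with a cell viability assay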
NOMO-1 = type: functional, cell-based, Homo sapiens; settings: Homo sapiens, NOMO-1;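 also: growth inhibition of human NOMO-1 cells measured by a cell viability assay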
NOS-1 = type: functional, cell-based, Homo sapiens; settings: Homo sapiens, NOS-1;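 also: growth inhibition of the human NOS-1 cell line, read out with a cell viability assay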
NTERA-2-cl-D1 = type: functional, cell-based, Homo sapiens; settings: Homo sapiens, NTERA-2-cl-D1;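 also: inhibition of cell growth, measured with a cell viability assay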
OS-RC-2 = type: functional, cell-based, Homo sapiens; settings: Homo sapiens, OS-RC-2;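 also: growth inhibition of human OS-RC-2 cells, measured by a cell viability assay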
PSN1 = type: functional, cell-based, Homo sapiens; settings: Homo sapiens, PSN1;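 also: suppression of growth of human PSN1 cells, read out by a cell viability assay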
QIMR-WIL = type: functional, cell-based, Homo sapiens; settings: Homo sapiens, QIMR-WIL;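 also: growth inhibition of QIMR-WIL cells, read out with a cell viability assay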
Ramos-2G6-4C10 = type: functional, cell-based, Homo sapiens; settings: Homo sapiens, Ramos-2G6-4C10;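 also: growth inhibition of the cell line, measured by a cell viability read-out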
SF-539 = type: functional, cell-based, Homo sapiens; settings: Homo sapiens, SF-539;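 also: Read-out is a cell viability assay, with IC50 reflecting inhibition of cell growth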
SW872 = type: functional, cell-based, Homo sapiens; settings: Homo sapiens, SW872;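 also: growth inhibition of SW872 cells, read out by a viability assay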
8-MG-BA = type: functional, cell-based, Homo sapiens; settings: Homo sapiens, 8-MG-BA;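 also: growth inhibition of 8-MG-BA cells, read out with a cell viability assay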
BV-173 = type: functional, cell-based, Homo sapiens; settings: Homo sapiens, BV-173
TE-11 = type: functional, cell-based; settings: Homo sapiens;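 also: growth inhibition of human TE-11 cells, read out by a cell viability assay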
TE-12 = type: functional, cell-based, Homo sapiens; settings: Homo sapiens, TE-12;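 also: growth inhibition of TE-12 cells, read out by a cell viability assay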
TE-9 = type: functional, cell-based, Homo sapiens; settings: Homo sapiens, TE-9;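 also: cell growth inhibition, measured with a cell viability readout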
CCRF-CEM = type: functional, cell-based, Homo sapiens; settings: Homo sapiens, CCRF-CEM;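 also: inhibition of CCRF-CEM cell growth, measured by a cell viability assay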
COLO-320-HSR = type: functional, cell-based, Homo sapiens; settings: Homo sapiens, COLO-320-HSR;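 also: growth inhibition of COLO-320-HSR cells, determined with a cell viability assay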

O=C1NC(=O)c2c1c(-c1ccccc1Cl)cc1[nH]c3ccc(O)cc3c21
pIC50 (D-263MG): < 5.70
pIC50 (DSH1): < 5.70
pIC50 (ES5): < 5.70
pIC50 (ES6): < 5.70
pIC50 (ES7): < 5.70
pIC50 (ES8): < 5.70
pIC50 (EW-13): < 5.70
pIC50 (GB-1): < 5.70
pIC50 (HCC2157): 5.80
pIC50 (HH): 5.79
pIC50 (HL-60): < 5.70
pIC50 (JVM-2): < 5.70
pIC50 (JVM-3): 5.84
pIC50 (KARPAS-299): < 5.70
pIC50 (KE-37): 6.32
pIC50 (KG-1): 6.06
pIC50 (KGN): 5.77
pIC50 (KINGS-1): < 5.70
pIC50 (KLE): < 5.70
pIC50 (KU812 cell line): < 5.70
pIC50 (LB996-RCC): < 5.70
pIC50 (LOX IMVI): < 5.70
pIC50 (LS-513): < 5.70
pIC50 (LU-134-A): 6.04
pIC50 (MEG-01): < 5.70
pIC50 (MHH-NB-11): < 5.70
pIC50 (ML-2): < 5.70
pIC50 (MZ7-mel): < 5.70
pIC50 (Mo): < 5.70
pIC50 (NCI-H1650): < 5.70
pIC50 (NCI-H226): < 5.70
pIC50 (NCI-H747): < 5.70
pIC50 (SNU1): 6.05
pIC50 (NH-12): < 5.70
pIC50 (NOMO-1): < 5.70
pIC50 (NOS-1): < 5.70
pIC50 (NTERA-2-cl-D1): < 5.70
pIC50 (OS-RC-2): < 5.70
pIC50 (PSN1): < 5.70
pIC50 (QIMR-WIL): 6.87
pIC50 (Ramos-2G6-4C10): 6.21
pIC50 (SF-539): 5.90
pIC50 (SW872): < 5.70
pIC50 (8-MG-BA): 5.81
pIC50 (BV-173): 6.36
pIC50 (TE-11): < 5.70
pIC50 (TE-12): < 5.70
pIC50 (TE-9): < 5.70
pIC50 (CCRF-CEM): < 5.70
pIC50 (COLO-320-HSR): 5.74

Cc1ccc(C(=O)Nc2ccc(CN3CCN(C)CC3)c(C(F)(F)F)c2)cc1C#Cc1cnc2cccnn12 [PONATINIB]
pIC50 (D-263MG): < 6.29
pIC50 (DSH1): < 6.29
pIC50 (ES5): < 6.29
pIC50 (ES6): < 6.29
pIC50 (ES7): < 6.29
pIC50 (ES8): < 6.29
pIC50 (EW-13): < 6.29
pIC50 (GB-1): 6.90
pIC50 (HCC2157): < 6.29
pIC50 (HH): < 6.29
pIC50 (HL-60): < 6.29
pIC50 (JVM-2): < 6.29
pIC50 (JVM-3): < 6.29
pIC50 (KARPAS-299): < 6.29
pIC50 (KE-37): < 6.29
pIC50 (KG-1): 7.48
pIC50 (KGN): < 6.29
pIC50 (KINGS-1): < 6.29
pIC50 (KLE): < 6.29
pIC50 (KU812 cell line): 7.55
pIC50 (LB996-RCC): < 6.29
pIC50 (LOX IMVI): < 6.29
pIC50 (LS-513): < 6.29
pIC50 (LU-134-A): < 6.29
pIC50 (MEG-01): > 8.70
pIC50 (MHH-NB-11): < 6.29
pIC50 (ML-2): < 6.29
pIC50 (MZ7-mel): < 6.29
pIC50 (Mo): < 6.29
pIC50 (NCI-H1650): < 6.29
pIC50 (NCI-H226): < 6.29
pIC50 (NCI-H747): 6.38
pIC50 (SNU1): < 6.29
pIC50 (NH-12): < 6.29
pIC50 (NOMO-1): < 6.29
pIC50 (NOS-1): 6.61
pIC50 (NTERA-2-cl-D1): < 6.29
pIC50 (OS-RC-2): < 6.29
pIC50 (PSN1): < 6.29
pIC50 (QIMR-WIL): 6.48
pIC50 (Ramos-2G6-4C10): < 6.29
pIC50 (SF-539): < 6.29
pIC50 (SW872): < 6.29
pIC50 (8-MG-BA): < 6.29
pIC50 (BV-173): < 6.29
pIC50 (TE-11): < 6.29
pIC50 (TE-12): < 6.29
pIC50 (TE-9): < 6.29
pIC50 (CCRF-CEM): < 6.29
pIC50 (COLO-320-HSR): < 6.29
